Measured values: patent US11370762B2, “Vinylarene derivative and application” (SHENYANG RESEARCH INSTITUTE OF CHEMICAL INDUSTRY CO., LTD., priority 2017, dated 2022)
Where two headings read alike, the source gives them in different places. Values belong to the molecule of their own block, whether it stands above or below them.

Experiments:
colon cancer CT26 [1] = assay: In vivo pharmacodynamics, anti-colon cancer CT26 activity (intraperitoneal injection, once daily); conditions: 300 mg/kg daily by oral, two weeks, CT26 in BALB/c mice
colon cancer CT26 [2] = assay: as above; conditions: CT26 in BALB/c mice; for activity at the end of the experiment compared with other groups: once daily dosing; for Inhibition rate (%) of tumor weight / Tumor weight: 50 mg/kg daily intraperitoneal injection, two weeks
Method: Pharmacodynamics of Some Compounds In Vivo (Intraperitoneal Injection):
(§1) The anti-colon cancer CT26 activity of these compounds was tested in vivo. 1×10^6 CT26 cells were inoculated subcutaneously in the right axillary of BALB/c mice by cell suspension inoculation. When the growth of tumors were clearly observed, 42 moderately tumor size animals were selected and randomly divided into test group, solvent control group and positive drug group, with 6 animals in each group. […] The compound groups were intraperitoneally injected with 50 mg/kg of the compound every day, while the solvent control group was given the same dosage with the same volume of mixed solvent. The weight of the mice and the length and short diameter of the transplanted tumors were measured three times a week during the administration. The tumor volume (VT), relative volume (RVT) and tumor proliferation rate (T/C %) were calculated. After two weeks of administration, nude mice bearing tumors in each experimental group were executed by neck-lifting method. Solid tumour tissues were completely dissected. The weight of tumors in each experimental group was measured and the growth inhibition rate (%) was calculated.

[3] = target: T1, IDO1 enzyme in Hela cells (Homo sapiens, UniProt P14902); assay: Inhibition of IDO1 enzyme in IFN-γ stimulated Hela cells (kynurenine read at 480 nm); format: cell-based; conditions: for inhibition at 0.1 µM: read-out: Inhibition rate (%) 100 nmol; for inhibition at 10 µM: read-out: Inhibition rate (%) 10 μmol; for activity compared with positive control drugs INCB024360 and IN-4 / IC50: Hela cells; for activity compared with positive control drugs INCB024360 and IN-4: IC50 comparison; for IC50: read-out: Inhibition rate IC50 (nmol/L) on IDO1 enzyme activity in Hela cells
T1 construct: endogenous in cells; host or cells: HeLa cells stimulated with human recombinant IFN-γ

colon cancer CT26 [4] = assay: In vivo pharmacodynamics, anti-colon cancer CT26 activity (oral administration, twice a day); set-up: species or system BALB/c mice; conditions: two weeks
Method: Pharmacodynamic of Some Compounds In Vivo (Oral Administration):
as §1, with “observed, 56” for “observed, 42”, “with 8” for “with 6”, “The” for “The compound groups were intraperitoneally injected with 50 mg/kg of the compound every day, while the”, “same” for “same dosage with the same”, “mixed solvents by oral. The above groups were administered twice a day.” for “mixed solvent.”

colon cancer CT26 [5] = assay: as above; set-up: species or system BALB/c mice; conditions: 50 mg/kg intraperitoneal injection (IP), two weeks
[6] = Oral pharmacokinetic test of compound 55 in rats; format: in vivo; conditions: male, Sprague-Dawley, plasma, rat, 30 mg/kg
Method: Pharmacokinetic Test and Results of Compound 55:
12 Male Sprague-Dawley rats were grouped random. The final concentration of compound 55 was 1.5 mg/ml. The drug was dissolved in a solvent system of 10% DMSO, 10% hydrogenated castor oil and […] (compounds were dissolved by DMSO, hydrogenated castor oil and saline in turn by vortex or ultrasound), and the drug solution was given orally (30 mg/kg). The rats were fasted overnight but had free access to water, feeding resumed 4 hours after administration. Blood samples (0.3-0.4 mL) were collected into heparinized tubes by Retinal vein plexus at 0, 0.17, 0.33, 0.67, 1, 2, 4, 7, 10 and 24 hours after administration orally. Tubes were anticoagulated with heparin sodium (5% heparin sodium solution filled EP tube, poured out, dried). 100 uL plasma was obtained by centrifugation (10000 rpm, 3 min) and stored at −20° C. before analysis.

[7] = literature value, species not stated; cited from earlier work
[8] = 100 nmol compound, IFN-γ stimulated Hela cells, 48 hours
[9] = 10 μmol compound, IFN-γ stimulated Hela cells, 48 hours

T1 sequence (P14902 whole entry): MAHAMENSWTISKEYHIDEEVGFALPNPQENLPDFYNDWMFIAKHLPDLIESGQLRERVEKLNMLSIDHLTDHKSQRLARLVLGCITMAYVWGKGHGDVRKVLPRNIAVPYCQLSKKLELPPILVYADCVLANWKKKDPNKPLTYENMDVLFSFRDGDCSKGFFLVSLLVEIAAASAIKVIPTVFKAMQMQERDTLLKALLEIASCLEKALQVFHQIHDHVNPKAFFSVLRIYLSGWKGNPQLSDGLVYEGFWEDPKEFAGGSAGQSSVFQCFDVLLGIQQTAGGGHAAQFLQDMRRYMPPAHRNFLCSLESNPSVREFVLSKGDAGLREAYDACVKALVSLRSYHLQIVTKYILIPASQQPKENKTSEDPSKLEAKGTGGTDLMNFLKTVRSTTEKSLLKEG

Structure (SMILES): Cn1cc(C[C@@H](N)C(=O)O)c2ccccc21 [Compound 1-MT, 1-methyl-D-tryptophan]
Inhibition rate (%) of tumor weight (colon cancer CT26 [1]): 25.5% | Tumor weight (colon cancer CT26 [1]): 2509.17 ± 352.16 mg | activity at the end of the experiment compared with other groups (colon cancer CT26 [2]): better than that of INCB024360

Structure (SMILES): C/C(=C/C(=O)O)c1ccc(N(CC(C)C)CC(C)C)c(NC(=O)Nc2ccc(C)cc2)c1 [Compound 51]
activity compared with positive control drugs INCB024360 and IN-4 [3]: can reach or exceed those of the positive control drugs INCB024360 and IN-4 | IC50 [3]: 3.69 nmol/L

Structure (SMILES): C/C(=C/C(=O)O)c1ccc(N(CC(C)C)CC(C)C)c(NC(=O)Nc2ccc(F)cc2F)c1 [Compound 55, (Z)-3-(3-(3-(2,4-difluorophenyl)ureido)-4-(diisobutylamino)phenyl)but-2-enoic acid]
Inhibition rate (%) of tumor weight (colon cancer CT26 [4]; 20 mg/kg oral (low dose)): 12.42% | Tumor weight (colon cancer CT26 [4]; 20 mg/kg oral (low dose)): 1109.75 ± 191.47 mg | Inhibition rate (%) of tumor weight (colon cancer CT26 [4]; 50 mg/kg oral): 27.06% | Tumor weight (colon cancer CT26 [4]; 50 mg/kg oral): 924.25 ± 150.35 mg | Inhibition rate (%) of tumor weight (colon cancer CT26 [4]; 100 mg/kg oral (high dose)): 33.16% | Tumor weight (colon cancer CT26 [4]; 100 mg/kg oral (high dose)): 847.00 ± 305.01 mg | Inhibition rate (%) of tumor weight (colon cancer CT26 [2]): 37.02% | Tumor weight (colon cancer CT26 [2]): 2121.17 ± 343.15 mg | activity at the end of the experiment compared with other groups (colon cancer CT26 [2]): equivalent to that of 1-MT | activity compared with positive control drugs INCB024360 and IN-4 [3]: can reach or exceed those of the positive control drugs INCB024360 and IN-4 | IC50 [3]: 0.09 nmol/L | Inhibition rate (%) of tumor weight (colon cancer CT26 [5]): 34.97% | Tumor weight (colon cancer CT26 [5]): 824.00 ± 161.64 mg | AUC [6]: 43700 ng·h/mL | Cmax [6]: 16800 ng/mL | half-life [6]: 5 h

Structure (SMILES): CCCCN(CCCC)c1ccc(/C(C)=C/C(=O)OCC)cc1NC(=O)Nc1ccc(C)cc1 [Compound 518, ethyl (E)-3-(4-(dibutylamino)-3-(3-(p-tolyl)ureido)phenyl)but-2-enoate]
inhibition at 0.1 µM ([3]; HeLa, 48 h): 76.8% | inhibition at 10 µM ([3]; HeLa, 48 h): 100%

Structure (SMILES): CCOC(=O)/C=C(\C)c1ccc(N(CC(C)C)CC(C)C)c(NC(=O)Nc2ccc(F)cc2F)c1 [Compound 564, ethyl (E)-3-(3-(3-(2,4-difluorophenyl)ureido)-4-(diisobutylamino)phenyl) but-2-enoate]
inhibition at 0.1 µM [3, 8]: 72.2% | inhibition at 10 µM [3, 9]: 100%

Structure (SMILES): CCCCN(CCCC)c1ccc(/C(C)=C/C(=O)OCC)cc1NC(=O)Cc1ccccc1F [Compound 772]
inhibition at 0.1 µM [3, 8]: 74.2% | inhibition at 10 µM [3, 9]: 100%

Structure (SMILES): CCCCN(CCCC)c1ccc(/C(C)=C/C(=O)OCC)cc1NC(=O)Nc1ccc(Cl)c(C(F)(F)F)c1 [Compound 1024]
inhibition at 0.1 µM [3, 8]: 29.5% | inhibition at 10 µM [3, 9]: 58.2%

Structure (SMILES): CCCCN(CCCC)c1ccc(/C(C)=C/C(=O)OCC)cc1NC(=S)Nc1ccccc1 [Compound 1025]
inhibition at 0.1 µM [3, 8]: 24.6% | inhibition at 10 µM [3, 9]: 68.8%

Structure (SMILES): CCCCN(CCCC)c1ccc(/C(C)=C/C(=O)O)cc1NC(=S)Nc1ccccc1 [Compound 1031]
inhibition at 0.1 µM [3, 8]: 29.6% | inhibition at 10 µM [3, 9]: 72.7%

Structure (SMILES): NS(=O)(=O)NCCNc1nonc1C(=NO)Nc1ccc(F)c(Br)c1 [INCB024360, reference compound]
Inhibition rate (%) of tumor weight (colon cancer CT26 [4]; 50 mg/kg oral): 33.66% | Tumor weight (colon cancer CT26 [4]; 50 mg/kg oral): 840.63 ± 144.34 mg | Inhibition rate (%) of tumor weight (colon cancer CT26 [2]): 10.23% | Tumor weight (colon cancer CT26 [2]): 3026.17 ± 409.75 mg | T1/2 reported in the literature [7]: 2.3 h

Further lines, with some results ahead:

inhibition at 0.1 µM [3, 8]: 100% | inhibition at 10 µM [3, 9]: 100% | IC50 [3]: 3.69 nmol/L
Structure (SMILES): CCCCN(CCCC)c1ccc(/C(C)=C\C(=O)O)cc1NC(=O)Nc1ccc(F)cc1F [Compound 13]
activity compared with positive control drugs INCB024360 and IN-4 [3]: can reach or exceed those of the positive control drugs INCB024360 and IN-4

inhibition at 0.1 µM [3, 8]: 100% | inhibition at 10 µM [3, 9]: 100% | IC50 [3]: 0.18 nmol/L
Structure (SMILES): CCCCN(CCCC)c1ccc(/C(C)=C\C(=O)O)cc1NC(=O)Nc1ccc(C)cc1F [Compound 14]
Inhibition rate (%) of tumor weight (colon cancer CT26 [4]; 50 mg/kg oral): 37.39% | Tumor weight (colon cancer CT26 [4]; 50 mg/kg oral): 793.38 ± 246.34 mg | Inhibition rate (%) of tumor weight (colon cancer CT26 [2]): 19.02% | Tumor weight (colon cancer CT26 [2]): 2727.33 ± 404.42 mg | activity compared with positive control drugs INCB024360 and IN-4 [3]: can reach or exceed those of the positive control drugs INCB024360 and IN-4

IC50 [3]: 0.13 nmol/L
Structure (SMILES): C/C(=C/C(=O)O)c1ccc(N(CC(C)C)CC(C)C)c(NC(=O)Nc2ccc(C)cc2F)c1 [Compound 56]
activity compared with positive control drugs INCB024360 and IN-4 [3]: can reach or exceed those of the positive control drugs INCB024360 and IN-4

IC50 [3]: 8.26 nmol/L
Structure (SMILES): CCCCN(CCCC)c1ccc(/C(C)=C/C(=O)O)cc1NC(=O)Nc1ccc(C)cc1F [Compound 530]

inhibition at 0.1 µM [3, 8]: 77.1% | inhibition at 10 µM [3, 9]: 100%
Structure (SMILES): CCCCN(CCCC)c1ccc(/C(C)=C/C(=O)O)cc1NC(=O)Cc1ccccc1F [Compound 779]

inhibition at 0.1 µM [3, 8]: 42.1% | inhibition at 10 µM [3, 9]: 100%
Structure (SMILES): CCCCN(CCCC)c1ccc(/C(C)=C/C(=O)OCC)cc1NC(=O)Nc1ccccc1Cl [Compound 1021]

inhibition at 0.1 µM [3, 8]: 21.2% | inhibition at 10 µM [3, 9]: 53.7%
Structure (SMILES): CCCCN(CCCC)c1ccc(/C(C)=C/C(=O)OCC)cc1NC(=O)Nc1cccc(Cl)c1 [Compound 1022]

inhibition at 0.1 µM [3, 8]: 35.1% | inhibition at 10 µM [3, 9]: 100%
Structure (SMILES): CCCCN(CCCC)c1ccc(/C(C)=C/C(=O)OCC)cc1NC(=O)Nc1ccc(Cl)cc1 [Compound 1023]

inhibition at 0.1 µM [3, 8]: 21% | inhibition at 10 µM [3, 9]: 54.3%
Structure (SMILES): CCCCN(CCCC)c1ccc(/C(C)=C/C(=O)OCC)cc1NC(=O)Nc1cccc(C)c1 [Compound 1026]

inhibition at 0.1 µM [3, 8]: 71.1% | inhibition at 10 µM [3, 9]: 100%
Structure (SMILES): CCCCN(CCCC)c1ccc(/C(C)=C/C(=O)O)cc1NC(=O)Nc1ccccc1Cl [Compound 1027]

inhibition at 0.1 µM [3, 8]: 41.5% | inhibition at 10 µM [3, 9]: 100%
Structure (SMILES): CCCCN(CCCC)c1ccc(/C(C)=C/C(=O)O)cc1NC(=O)Nc1cccc(Cl)c1 [Compound 1028]

inhibition at 0.1 µM [3, 8]: 23.8% | inhibition at 10 µM [3, 9]: 100%
Structure (SMILES): CCCCN(CCCC)c1ccc(/C(C)=C/C(=O)O)cc1NC(=O)Nc1ccc(Cl)c(C(F)(F)F)c1 [Compound 1030]
